Experimental data published in patent US20200268720A1, “METHODS OF USE OF A CLASS IIA HDAC INHIBITOR” (GlaxoSmithKline LLC, priority 2016, published 2020).

Test system: MMTV-PyMT tumor transplants
Assay: Orthotopic transplant of MMTV-PyMT tumor pieces into wild-type FVBN or athymic nude Foxn1nu mice
Type: in vivo, mouse
Settings: treated for 20 days
Description: Two transplant experiments were performed where tumors were extracted from MMTV-PyMT mice and 50-100 mm^3 pieces were inserted into the 4th mammary fat pad of either wild-type FVBN mice or athymic nude Foxn1nu mice. Five days after implant mice were randomly placed into treatment groups and treated as indicated.

## CC(=O)O[C@H]1C(=O)[C@@]2(C)[C@H]([C@H](OC(=O)c3ccccc3)[C@]3(O)C[C@H](OC(=O)[C@H](O)[C@@H](NC(=O)c4ccccc4)c4ccccc4)C(C)=C1C3(C)C)[C@]1(OC(C)=O)CO[C@@H]1C[C@@H]2O [paclitaxel, 5β,20-epoxy-1,2α,4,7β,10β,13α-hexa-hydroxytax-11-en-9-one 4,10-diacetate 2-benzoate 13-ester with (2R,3S)—N-benzoyl-3-phenylisoserine, reference compound]
  transplant growth in T cell deficient athymic nude (Foxn1nu) recipient mice: efficacious
